We go through six compounds from patent US4992426A, “Antiparasitic 5'-sulfamoyl nucleosides” (Nucleic Acid Research Institute, priority 1989, dated 1991).

In one series the test system is certain parasites. The conditions noted are these: background; cited from earlier work.
The conditions of series [1]: background; cited from earlier work.
For the next series, the system named is T. brucei EATRO 110. Nature of the series: Antiparasitic activity against T. brucei EATRO 110 in animals (mouse model). It is filed as in vivo, Trypanosoma brucei. The note with it: mice; for % Cured / Average Survival / Range of Survival: once daily for 3 days. Here is the method: Antiparasitic activity of the compounds of the invention in animals against T. brucei EATRO 110 was determined as described in C. J. Bacchi, R. L. Berens, H. C. Nathan, R. S. Klein, I. A. Elegbe, K. V. Rao, P. P. McCann and J. J. Marr, Antimicrob: Agents Chemother., 31, 1403 (1987) utilizing the mouse model described therein.
Mice (groups of 5) were infected with 2 × 10^5 trypanosomes and
treatment commenced 24 h post inoculation. Drugs were given once daily by
the route indicated for 3 days.

Another series relates to L. donovani. Nature of the series: Antileishmanial activity in animals (mouse model of visceral leishmaniasis). It is filed as in vivo, Leishmania donovani. The conditions noted are these: mice; for LDUs in Liver / Suppression (%): one week. The procedure: Antiparasitic activity of the compounds of the invention in animals against L. donovani was determined in a manner similar to that previously described J. S. Keithly and S. G. Langreth, Amer. J. Trop. Med. Hyg., 32, 485 (1983) for a hamster model. Briefly, mice were infected with 5×10^7 stationary phase promastigotes subcultured in Schneider's drosophila medium with 15% heat inactivated fetal bovine serum. The compounds of the invention were administered by gavage nine days after infection and continued for one week. Positive controls received Pentostam intraperitoneally. Infected, untreated controls received water orally but no intraperitoneal sham injections. Mice were necropsied sixteen days after infection (seven days after the beginning of drug treatment).
% Suppression = 100 100(LDUs of experimental/LDUs of control)

Another series concerns Trypanosoma gambiense. Nature of the series: In vitro antiparasitic activity against Trypanosoma gambiense. Format: cell-based. The conditions noted are these: for IC50: Trypanosoma brucei, GAMBIENSE, 120 h, 5 days at 26° C., read-out: ED50 (the source's name). Here is the method: (§1) The antiparasitic activities of the 1-(5'-0-sulfamoyl-β-D-ribofuranosyl)[1,2,4]triazolo 3-carboxamide, 3-thiocarboxamide and 3-carbonitrile compounds of the invention are shown in various in vitro and in vivo systems. […] These are representative of the protozoan diseases: leishmaniasis, trypanosomiasis, giardiasis and trichomoniasis.
(§2) Leishmania donovani (ATCC #30142)) and Trypanosoma qambiense (TH114, obtained from R. Brun, Schweizer Tropeninstitut, Basel, Switzerland) were grown in THOSMEM, HOSMEM and PPDM-79 media respectively as described in J. J. Marr, R. L. Berens and D. J. Nelson, J. Science. 202, 1018 (1978), J. J. Marr, D. J. Nelson and R. L. Berens, Biochim. Biophys. Acta, 544, 360 (1978) and W. R. Fish, J. J. Marr and R. L. Berens, Biochim. Biophys. Acta, 714, 422 (1982). For drug sensitivity studies these organisms were grown in 10 ml of their respective media in 25 cm^2 tissue culture flasks. Cultures were inoculated to a cell density of […] and incubated for 5 days at 26° C. in a 5% CO2 atmosphere. Final cell density was determined by counting the cells on a Coulter Counter (Model ZBI); control cultures reached a final density of ≈2·10^7 /ml.
(§3) Drug stock solutions were prepared by dissolving the compounds of the invention in 0.1N NaOH and adjusting the final concentration to 2 mg/ml based on extinction coefficient. Drug was added to respective culture media (<2% v/v) and the media filter sterilized. Doses effective against 50% (ED50) and 90% (ED90) were determined by triplicate counting of organisms exposed to various drug concentrations and determining a mean value. Results were expressed as a percentage control.

Another series deals with U937 cells. Nature of the series: Toxicity to U937 cells. It is filed as cell-based. The note with it: 1μg/ml.
A short description of the next series: Toxicity to U937 cells. It is filed as cell-based. The note with it: human, u937 cells; @ 1μg/ml; read-out: % Control (U937 cells).
The subject of another series is Giardia lamblia. Nature of the series: In vitro antiparasitic activity against Giardia lamblia. It is filed as cell-based. The conditions noted are these: for IC50: Giardia duodenalis, 72 h, 3 days at 37° C., read-out: ED50 (the source's name); for relative activity against G. lamblia (in words): compared with compound 2. Here is the method: as §1
(§4) Giardia lamblia (PI, ATCC #30888) and Trichomonas vaqinalis (ATCC #3301) were grown in modified TYI medium in 13×100 mm screw cap tubes as described in R. L. Berens and J. J. Marr, Biochem. Pharm., 35, 4191 (1986). Cultures were inoculated at a density of 10^4 and incubated for 3 days at 37° C.; control cultures reached densities of ≈1-2·10^6 for G. lamblia and ≈6-7·10^6 for T. vaqinalis. These parasites were counted by chilling tubes on ice for 30 min., then reading the optical density at 650 nm in a Gilford 300-N micro-sample spectrophotometer. Their cell number was obtained by comparing the absorbance to a standard curve constructed from numbers obtained by counting cells in a hemocytometer.
as §3

In a further series the test system is Leishmania donovani. Nature of the series: In vitro antiparasitic activity against Leishmania donovani. Format: cell-based. The conditions noted are these: for IC50: Leishmania donovani, 120 h, 5 days at 26° C., read-out: ED50 (the source's name). The procedure: as §1, §2, §3
Another series deals with Trichomonas vaginalis. Nature of the series: In vitro antiparasitic activity against Trichomonas vaginalis. It is filed as cell-based. The conditions noted are these: for IC50: Trichomonas vaginalis, 72 h, 3 days at 37° C., read-out: ED50 (the source's name). Here is the method:
as §1, §4, §3

Series [2] relates to Leishmania donovani, Trypanosoma qambiense, Giardia lamblia and Trichomonas vaqinalis. Nature of the series: In vitro antiparasitic activity against various pathogens (overall). It is filed as cell-based. The conditions noted are these: compounds 2, 3 and 4 compared. The procedure: as §1
Leishmania donovani (ATCC #30142)) and Trypanosoma qambiense (TH114, obtained from R. Brun, Schweizer Tropeninstitut, Basel, Switzerland) were grown in THOSMEM, HOSMEM and PPDM-79 media respectively as described in J. J. Marr, R. L. Berens and D. J. Nelson, J. Science. 202, 1018 (1978), J. J. Marr, D. J. Nelson and R. L. Berens, Biochim. Biophys. […] Final cell density was determined by counting the cells on a Coulter Counter (Model ZBI); control cultures reached a final density of ≈2·10^7 /ml.
Giardia lamblia (PI, ATCC #30888) and Trichomonas vaqinalis (ATCC #3301) were grown in modified TYI medium in 13×100 mm screw cap tubes as described in R. L. Berens and J. J. Marr, Biochem. Pharm., 35, 4191 (1986). […] These parasites were counted by chilling tubes on ice for 30 min., then reading the optical density at 650 nm in a Gilford 300-N micro-sample spectrophotometer. Their cell number was obtained by comparing the absorbance to a standard curve constructed from numbers obtained by counting cells in a hemocytometer. […]

A further series concerns adenosine kinase. The note with it: certain human cell lines in-vitro; cited from earlier work.
For series [3] the following is noted: background; cited from earlier work. This is another data set of the same source.

Converted amounts (≈) assume the structure as drawn. “Also recorded” adds a separate entry of the source. A value given as a limit tells only on which side of the number the result lay.

As for `Nc1ncnc2c1ncn2[C@@H]1O[C@H](COS(N)(=O)=O)[C@@H](O)[C@H]1O` [5'-O-sulfamoyl adenosine], in the series with certain parasites, the “antiparasitic activity (in words)” value is reported as “active in-vitro against certain parasites”. The “toxicity (in words)” value in series [1] is recorded as “extremely toxic”.
For `NC(=O)c1ncn([C@@H]2O[C@H](COS(N)(=O)=O)[C@@H](O)[C@H]2O)n1` [Compound 2, 1-(5'-O-Sulfamoyl-β-D-ribofuranosyl)[1,2,4]triazole-3-carboxamide], the “% Cured” value in the series with T. brucei EATRO 110 (1 mg/kg (i.p.)), with T. brucei EATRO 110 (5 mg/kg (i.p.)), in the series with T. brucei EATRO 110 (10 mg/kg (i.p.)), in the series on T. brucei EATRO 110 (20 mg/kg (i.p.)), with T. brucei EATRO 110 (50 mg/kg (i.p.)) and in the series with T. brucei EATRO 110 (50 mg/kg (i.v.)) was 0% throughout. The “% Cured” value with T. brucei EATRO 110 (50 mg/kg (p.o.)) is on record as 0%. The “Average Survival” value amounted to 4.6 days in the series on T. brucei EATRO 110 (1 mg/kg (i.p.)); 4.8 days with T. brucei EATRO 110 (5 mg/kg (i.p.)); 7.4 days with T. brucei EATRO 110 (10 mg/kg (i.p.)); 7.4 days in the series with T. brucei EATRO 110 (20 mg/kg (i.p.)); 6.4 days with T. brucei EATRO 110 (50 mg/kg (i.p.)); 6.4 days in the series on T. brucei EATRO 110 (50 mg/kg (i.v.)). Besides, in the series on T. brucei EATRO 110 (50 mg/kg (p.o.)), the “Average Survival” value was 11.6 days. Besides, the “Range of Survival” value was in the range of 4 to 5 days with T. brucei EATRO 110 (1 mg/kg (i.p.)); 4 to 6 days with T. brucei EATRO 110 (5 mg/kg (i.p.)); 4 to 11 days in the series with T. brucei EATRO 110 (10 mg/kg (i.p.)); 4 to 11 days with T. brucei EATRO 110 (20 mg/kg (i.p.)); 4 to 10 days with T. brucei EATRO 110 (50 mg/kg (i.p.)); 4 to 12 days in the series with T. brucei EATRO 110 (50 mg/kg (i.v.)). Further, the “Range of Survival” value with T. brucei EATRO 110 (50 mg/kg (p.o.)) fell in the range of 10 to 14 days. The “activity against T. brucei in animals (in words)” value with T. brucei EATRO 110 (i.p., i.v., oral) is “exhibits this activity when administered orally; also recorded: shows intraperitoneal, intravenous and oral activity; also recorded: oral activity of compound 2 is greater than intraperitoneal activity; also recorded: prolonged survival at all dosages tested”. Also, the “LDUs in Liver” value with L. donovani (10 mg/kg/day, gavage) is 1244 ± 469 LDUs; in the series with L. donovani (20 mg/kg/day, gavage) it was 765 ± 133 LDUs; with L. donovani (50 mg/kg/day, gavage), 501 ± 276 LDUs. Moreover, the “Suppression (%)” value with L. donovani (10 mg/kg/day, gavage) was found to be 18%; in the series with L. donovani (20 mg/kg/day, gavage) it was 50%; in the series on L. donovani (50 mg/kg/day, gavage), 67%. Further, the “antileishmanial activity in animals (in words)” value in the series on L. donovani (compared with Pentostam) was “good suppression of the parasites in the livers; also recorded: response equivalent to that of optimized Pentostam; also recorded: as active as Pentostam; also recorded: as active as pentavalent antimony”. Besides, the “activity against T. gambiense (in words)” value with Trypanosoma gambiense was “shows antitrypanosomal activity; also recorded: killed by low concentrations”. The IC50 in the series with Trypanosoma gambiense was 0.01 to 0.05 µg/mL (≈ 0.0309 to 0.155 µM); in the series on Giardia lamblia it was 5 to 10 µg/mL (≈ 15.5 to 30.9 µM); in the series with Leishmania donovani it was 0.03 µg/mL (≈ 0.0928 µM); in the series on Trichomonas vaginalis, greater than 25 µg/mL. The “toxicity to U937 cells (in words)” value in the series with U937 cells was “toxic”. In the series “Toxicity to U937 cells”, the viability amounted to 10%. In the series on Leishmania donovani, the “antileishmanial activity in vitro (in words)” value is “significant activity as an antileishmanial agent”. Moreover, the “relative antiparasitic activity in vitro (in words)” value in series [2] is “the most active and had the lowest ED50 against these organisms”.
Consider `NC(=S)c1ncn([C@@H]2O[C@H](COS(N)(=O)=O)[C@@H](O)[C@H]2O)n1` [Compound 3, 1-(5'-O-Sulfamoyl-β-D-ribofuranosyl)[1,2,4]triazole-3-thiocarboxamide], for which the IC50 in the series with Trypanosoma gambiense was 0.5 µg/mL (≈ 1.47 µM); with Giardia lamblia, greater than 25 µg/mL; with Leishmania donovani, 2.5 µg/mL (≈ 7.37 µM); in the series with Trichomonas vaginalis, 15 µg/mL (≈ 44.2 µM). The “relative activity against G. lamblia (in words)” value in the series on Giardia lamblia is reported as “about the same as for compound 2”. In addition, the “relative activity against T. vaginalis (in words)” value in the series with Trichomonas vaginalis (compared with compounds 2 or 4) is “greater activity; also recorded: greater activity than compounds 2 or 4”.
Turning to `N#Cc1ncn([C@@H]2O[C@H](COS(N)(=O)=O)[C@@H](O)[C@H]2O)n1` [Compound 4, 1-(5'-0-Sulfamoyl-β-D-ribofuranosyl)[1,2,4]triazole-3-carbonitrile], the IC50 was 1 to 5 µg/mL (≈ 3.28 to 16.4 µM) in the series on Trypanosoma gambiense, greater than 25 µg/mL in the series on Giardia lamblia, 1 to 5 µg/mL (≈ 3.28 to 16.4 µM) with Leishmania donovani and greater than 25 µg/mL in the series on Trichomonas vaginalis. Also, the “relative activity against G. lamblia (in words)” value in the series with Giardia lamblia was “about the same as for compound 2”.
For `O.O.O.O.O.O.O.O.O.O=C([O-])[C@@H]1[O][Sb](=[O])([O][Sb]2(=[O])[O][C@H]([C@H](O)CO)[C@H](O)[C@H](C(=O)[O-])[O]2)[O][C@H]([C@H](O)CO)[C@@H]1O.[Na+].[Na+].[Na+]` (stereo partly drawn) [Pentostam, reference compound], in the series on L. donovani (50 mg/kg/day, intraperitoneal), the “LDUs in Liver” value worked out at 411 ± 245 LDUs and the “Suppression (%)” value was 73%.
For `NC(=O)c1ncn([C@@H]2O[C@H](CO)[C@@H](O)[C@H]2O)n1` [Ribavirin, 1-(β-D-Ribofuranosyl)[1,2,4]triazole-3-carboxamide], in the series on adenosine kinase, the “substrate for adenosine kinase (in words)” value is “substrate for adenosine kinase”. The “antiparasitic activity (in words)” value in the series on certain parasites is “does not have antiparasitic activity”. Moreover, the “antiviral activity (in words)” value in series [3] is given as “broad spectrum antiviral agent”. Also, in series [1], the “toxicity (in words)” value is “relatively non-toxic”.
